US9233964B2, “Sulfamide piperazine derivatives as protein tyrosine kinase inhibitors and pharmaceutical use therof” (LEO PHARMA A/S, priority 2011, dated 2016)

Assays:
Type in all cases: biochemical
[1] = biological target: T1, JAK2 (Homo sapiens, UniProt O60674); assay: JAK kinase assay (HTRF, phosphorylation of synthetic peptide), JAK2; settings: catalytic domain, ATP at Km (4 μM); read-out: JAK2 kinase inhibitory activity (EC50)
T1 construct: All four purified enzymes contain only the catalytic domain; His (N); purchased Carna Biosciences, Inc; host or cells: baculovirus expression system
Experimental: (§1) Human baculovirus-expressed JAK1, 2, 3 and TYK2 were purchased from Carna Biosciences, Inc. All four purified enzymes contain only the catalytic domain. JAK1 (aa 850-1154) and TYK2 (aa 871-1187) are expressed with an N-terminally fused GST-tag, and JAK2 and JAK3 with an N-terminally fused His-tag.
(§2) Inhibition of phosphorylation of a synthetic peptide was measured in an HTRF-based assay using the TK substrate-Biotin from the Cisbio HTRFKinEASE TK kit. First, 2 μl of TK solution (TK substrate-biotin in kinase buffer [1× enzymatic buffer from HTRFKinEASE TK kit, 1 mM DTT]) is added to a plate containing 1 μl prediluted compound (final assay concentration DMSO: 0.75%). Then, 5 μl kinase-ATP mix (prepared in kinase buffer) is added to the wells and the plates are incubated at RT for 20-30 min. For all four kinases a concentration of ATP that corresponded to the Km for ATP was used. The final concentrations of buffers, substrate, kinase and ATP were: JAK1: 50 mM Hepes buffer pH 7.0, 0.01% BSA, 10 mM MgCl2, 1 mM DTT, 7 μM ATP, 50 nM SEB, 1 μM TK Substrate-Biotin and 5 ng JAK1; JAK2: 50 mM Hepes buffer pH 7.0, 0.01% BSA, 5 mM MgCl2, 1 mM DTT, 4 μM ATP, 1 μM TK Substrate-Biotin and 0.1 ng JAK2; JAK3: 50 mM Hepes buffer pH 7.0, 0.01% BSA, 5 mM MgCl2, 1 mM DTT, 2 μM ATP, 1 μM TK Substrate-Biotin and 0.3 ng JAK3; TYK2: 50 mM Hepes buffer pH 7.0, 0.01% BSA, 5 mM MgCl2, 1 mM DTT, 13 μM ATP, 50 nM SEB, 1 μM TK Substrate-Biotin and 0.8 ng TYK2. Thereafter, the kinase reaction is stopped by adding 4 μl detection mix (final concentrations: 50 mM Hepes buffer pH 7.0, 0.01% BSA, 0.8 M KF, 20 mM EDTA, 42 nM Streptavidin-XL665 and 1:400 STK Ab Cryptate) and the plates are incubated overnight in the dark. The HTRF signal is read using an Envision plate reader.

[2] = biological target: T2, TYK2 (Homo sapiens, UniProt P29597); assay: JAK kinase assay (HTRF, phosphorylation of synthetic peptide), TYK2; settings: catalytic domain, ATP at Km (13 μM); read-out: TYK2 kinase inhibitory activity (EC50)
T2 construct: JAK1 (aa 850-1154) and TYK2 (aa 871-1187) are expressed with an N-terminally fused GST-tag; GST (N); purchased Carna Biosciences, Inc; host or cells: baculovirus expression system
T2 sequence (P29597 871-1187): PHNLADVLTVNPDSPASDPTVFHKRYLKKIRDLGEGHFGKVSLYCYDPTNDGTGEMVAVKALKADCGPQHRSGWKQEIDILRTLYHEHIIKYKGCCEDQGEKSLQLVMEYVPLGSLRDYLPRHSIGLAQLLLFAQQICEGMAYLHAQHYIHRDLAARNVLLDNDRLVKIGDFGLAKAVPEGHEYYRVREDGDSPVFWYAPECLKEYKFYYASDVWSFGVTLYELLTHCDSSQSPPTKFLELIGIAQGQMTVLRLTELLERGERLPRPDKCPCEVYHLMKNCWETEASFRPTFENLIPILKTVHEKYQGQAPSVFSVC
Experimental: as §1, §2

[3] = biological target: T3, JAK1 (Homo sapiens, UniProt P23458); assay: JAK kinase assay (HTRF, phosphorylation of synthetic peptide), JAK1; settings: catalytic domain, ATP at Km (7 μM); read-out: JAK1 kinase inhibitory activity (EC50)
T3 construct: JAK1 (aa 850-1154) and TYK2 (aa 871-1187) are expressed with an N-terminally fused GST-tag; GST (N); purchased Carna Biosciences, Inc; host or cells: baculovirus expression system
Experimental: as §1, §2

[4] = biological target: T4, JAK3 (Homo sapiens, UniProt P52333); assay: JAK kinase assay (HTRF, phosphorylation of synthetic peptide), JAK3; settings: catalytic domain, ATP at Km (2 μM); read-out: JAK3 kinase inhibitory activity (EC50)
T4 construct: All four purified enzymes contain only the catalytic domain; His (N); purchased Carna Biosciences, Inc; host or cells: baculovirus expression system
Experimental: as §1, §2

T3 sequence (P23458 850-1154): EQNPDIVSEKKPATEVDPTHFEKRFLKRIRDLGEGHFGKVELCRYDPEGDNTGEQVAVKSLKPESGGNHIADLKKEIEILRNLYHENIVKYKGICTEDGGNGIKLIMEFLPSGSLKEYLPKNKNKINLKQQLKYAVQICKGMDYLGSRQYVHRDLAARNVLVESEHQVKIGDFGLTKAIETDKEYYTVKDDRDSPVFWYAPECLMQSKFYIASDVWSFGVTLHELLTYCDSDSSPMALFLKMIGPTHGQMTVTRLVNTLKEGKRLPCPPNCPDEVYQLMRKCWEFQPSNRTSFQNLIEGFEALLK
T4 sequence (P52333 822-1111 limits assumed): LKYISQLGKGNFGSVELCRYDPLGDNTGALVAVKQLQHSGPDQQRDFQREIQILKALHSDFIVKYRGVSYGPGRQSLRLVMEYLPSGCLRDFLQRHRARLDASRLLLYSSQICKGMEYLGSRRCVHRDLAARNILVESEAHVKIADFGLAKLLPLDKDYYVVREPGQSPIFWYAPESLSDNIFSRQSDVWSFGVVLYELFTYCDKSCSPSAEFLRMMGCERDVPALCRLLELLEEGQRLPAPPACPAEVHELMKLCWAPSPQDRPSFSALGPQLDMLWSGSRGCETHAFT
T1 sequence (O60674 849-1124 limits assumed): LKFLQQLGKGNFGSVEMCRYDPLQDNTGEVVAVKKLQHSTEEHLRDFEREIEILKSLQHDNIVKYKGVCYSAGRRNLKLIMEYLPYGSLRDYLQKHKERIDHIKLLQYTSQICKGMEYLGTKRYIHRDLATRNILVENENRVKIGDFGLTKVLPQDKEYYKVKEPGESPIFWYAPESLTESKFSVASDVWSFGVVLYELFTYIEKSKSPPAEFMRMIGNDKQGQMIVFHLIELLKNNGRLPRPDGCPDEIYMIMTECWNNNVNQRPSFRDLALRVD

| SMILES | EC50 [1] | EC50 [2] | EC50 [3] | EC50 [4] |
| --- | --- | --- | --- | --- |
| O=S(=O)(N(CCc1ccccc1)CC1CC1)N1CCN(c2ncnc3[nH]ccc23)CC12CC2 [Example 2, 7-(7H-Pyrrolo[2,3-d]pyrimidin-4-yl)-4,7-diaza-spiro[2.5]octane-4-sulfonic acid cyclopropylmethyl-phenethyl-amide] | < 100 nM | > 500 nM | < 100 nM | 100 to 500 nM |
| O=S(=O)(N(CCc1ccccc1)CC1CCC1)N1CCN(c2ncnc3[nH]ccc23)CC12CC2 [Example 3, 7-(7H-Pyrrolo[2,3-d]pyrimidin-4-yl)-4,7-diaza-spiro[2.5]octane-4-sulfonic acid cyclobutyl methyl-phenethyl-amide] | < 100 nM | > 500 nM | 100 to 500 nM | 100 to 500 nM |
| CCC(=O)CN(CCc1ccccc1)S(=O)(=O)N1CCN(c2ncnc3[nH]ccc23)CC12CC2 [Example 4, 7-(7H-Pyrrolo[2,3-d]pyrimidin-4-yl)-4,7-diaza-spiro[2.5]octane-4-sulfonic acid (2-oxo-butyl)-phenethyl-amide] | < 100 nM | > 500 nM | < 100 nM | 100 to 500 nM |
| O=S(=O)(N(CCCO)CCc1ccccc1)N1CCN(c2ncnc3[nH]ccc23)CC12CC2 [Example 5, 7-(7H-Pyrrolo[2,3-d]pyrimidin-4-yl)-4,7-diaza-spiro[2.5]octane-4-sulfonic acid (3-hydroxy-propyl)-phenethyl-amide] | < 100 nM | 100 to 500 nM | < 100 nM | < 100 nM |
| CC(C)CN(CCc1ccccc1)S(=O)(=O)N1CCN(c2ncnc3[nH]ccc23)CC12CC2 [Example 6, 7-(7H-Pyrrolo[2,3-d]pyrimidin-4-yl)-4,7-diaza-spiro[2.5]octane-4-sulfonic acid isobutyl-phenethyl-amide] | < 100 nM | > 500 nM | 100 to 500 nM | 100 to 500 nM |
| CCCN(CCc1ccccc1)S(=O)(=O)N1CCN(c2ncnc3[nH]ccc23)CC12CC2 [Example 7, 7-(7H-Pyrrolo[2,3-d]pyrimidin-4-yl)-4,7-diaza-spiro[2.5]octane-4-sulfonic acid phenethyl-propyl-amide] | < 100 nM | > 500 nM | < 100 nM | 100 to 500 nM |
| O=S(=O)(N(CCc1ccccc1)CC1CCCCC1)N1CCN(c2ncnc3[nH]ccc23)CC12CC2 [Example 8, 7-(7H-Pyrrolo[2,3-d]pyrimidin-4-yl)-4,7-diaza-spiro[2.5]octane-4-sulfonic acid cyclohexylmethyl-phenethyl-amide] | > 500 nM | > 500 nM | > 500 nM | > 500 nM |
| O=S(=O)(N(CCCc1ccccc1)CCc1ccccc1)N1CCN(c2ncnc3[nH]ccc23)CC12CC2 [Example 9, 7-(7H-Pyrrolo[2,3-d]pyrimidin-4-yl)-4,7-diaza-spiro[2.5]octane-4-sulfonic acid phenethyl-(3-phenyl-propyl)-amide] | 100 to 500 nM | > 500 nM | > 500 nM | > 500 nM |
| CN(CCCc1ccccc1)S(=O)(=O)N1CCN(c2ncnc3[nH]ccc23)CC12CC2 [Example 10, 7-(7H-Pyrrolo[2,3-d]pyrimidin-4-yl)-4,7-diaza-spiro[2.5]octane-4-sulfonic acid methyl-(3-phenyl-propyl)-amide] | < 100 nM | > 500 nM | < 100 nM | 100 to 500 nM |
| CN(CCC1CCCCC1)S(=O)(=O)N1CCN(c2ncnc3[nH]ccc23)CC12CC2 [Example 11, 7-(7H-Pyrrolo[2,3-d]pyrimidin-4-yl)-4,7-diaza-spiro[2.5]octane-4-sulfonic acid (2-cyclohexyl-ethyl)-methyl-amide] | < 100 nM | > 500 nM | < 100 nM | 100 to 500 nM |
| CN(CC(=O)c1ccccc1)S(=O)(=O)N1CCN(c2ncnc3[nH]ccc23)CC12CC2 [Example 12, 7-(7H-Pyrrolo[2,3-d]pyrimidin-4-yl)-4,7-diaza-spiro[2.5]octane-4-sulfonic acid methyl-(2-oxo-2-phenyl-ethyl)-amide] | < 100 nM | > 500 nM | < 100 nM | 100 to 500 nM |
| CN(Cc1cccc(C#N)c1)S(=O)(=O)N1CCN(c2ncnc3[nH]ccc23)CC12CC2 [Example 13, 7-(7H-Pyrrolo[2,3-d]pyrimidin-4-yl)-4,7-diaza-spiro[2.5]octane-4-sulfonic acid (3-cyano-benzyl)-methyl-amide] | < 100 nM | 100 to 500 nM | < 100 nM | < 100 nM |
| CN(Cc1ccccc1C#N)S(=O)(=O)N1CCN(c2ncnc3[nH]ccc23)CC12CC2 [Example 14, 7-(7H-Pyrrolo[2,3-d]pyrimidin-4-yl)-4,7-diaza-spiro[2.5]octane-4-sulfonic acid (2-cyano-benzyl)-methyl-amide] | < 100 nM | < 100 nM | < 100 nM | 100 to 500 nM |
| CN(CC1CCCCC1)S(=O)(=O)N1CCN(c2ncnc3[nH]ccc23)CC12CC2 [Example 15, 7-(7H-Pyrrolo[2,3-d]pyrimidin-4-yl)-4,7-diaza-spiro[2.5]octane-4-sulfonic acid cyclohexylmethyl-methyl-amide] | < 100 nM | 100 to 500 nM | < 100 nM | < 100 nM |
| CN(CCc1ccc(F)cc1)S(=O)(=O)N1CCN(c2ncnc3[nH]ccc23)CC12CC2 [Example 16, 7-(7H-Pyrrolo[2,3-d]pyrimidin-4-yl)-4,7-diaza-spiro[2.5]octane-4-sulfonic acid [2-(4-fluoro-phenyl)-ethyl]-methyl-amide] | < 100 nM | 100 to 500 nM | < 100 nM | < 100 nM |
| N#CCCCCN(CCc1ccccc1)S(=O)(=O)N1CCN(c2ncnc3[nH]ccc23)CC12CC2 [Example 20, 7-(7H-Pyrrolo[2,3-d]pyrimidin-4-yl)-4,7-diaza-spiro[2.5]octane-4-sulfonic acid (4-cyano-butyl)-phenethyl-amide] | < 100 nM | – | < 100 nM | < 100 nM |
| N#CCCCN(CCc1ccccc1)S(=O)(=O)N1CCN(c2ncnc3[nH]ccc23)CC12CC2 [Example 33, 7-(7H-Pyrrolo[2,3-d]pyrimidin-4-yl)-4,7-diaza-spiro[2.5]octane-4-sulfonic acid (3-cyano-propyl)-phenethyl-amide] | < 100 nM | – | < 100 nM | < 100 nM |
| N#CCCN(C1CC1)S(=O)(=O)N1CCN(c2ncnc3[nH]ccc23)CC12CC2 [Example 41, 7-(7H-Pyrrolo[2,3-d]pyrimidin-4-yl)-4,7-diaza-spiro[2.5]octane-4-sulfonic acid (2-cyano-ethyl)-cyclopropyl-amide] | < 100 nM | – | < 100 nM | < 100 nM |
| O=S(=O)(NCCO)N1CCN(c2ncnc3[nH]ccc23)CC12CC2 [Example 53, 7-(7H-Pyrrolo[2,3-d]pyrimidin-4-yl)-4,7-diaza-spiro[2.5]octane-4-sulfonic acid (2-hydroxy-ethyl)-amide] | < 100 nM | – | < 100 nM | < 100 nM |
| CN(Cc1ccc(C(F)(F)F)cc1)S(=O)(=O)N1CCN(c2ncnc3[nH]ccc23)CC12CC2 [Example 81, N-methyl-5-(7H-pyrrolo[2,3-d]pyrimidin-4-yl)-N-[[4-(trifluoromethyl)phenyl]methyl]-5,8-diazaspiro[2.5]octane-8-sulfonamide] | < 100 nM | > 500 nM | < 100 nM | – |
